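Dose response: 5 concentrations. Exposure: 48 h. Format: 96-well plates. Endpoint: linear interpolation; highest concentration if not reached. GI50 = concentration required for 50% inhibition of growth. The concentration for full growth arrest is given as TGI.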
Experiments:
Assay in all cases: inhibition of tumour cell growth, NCI panel, 48 h
[1] = test system: COLO 205 colon
[2] = test system: NCI-H226 lung
[3] = test system: MDA-MB-468 breast
[4] = test system: SF-268 CNS
[5] = test system: HT29 colon
[6] = test system: K-562 leukemia
[7] = test system: HCC-2998 colon
[8] = test system: LOX IMVI melanoma
[9] = test system: TK-10 renal
[10] = test system: EKVX NSCLC
[11] = test system: UACC-62 melanoma
[12] = test system: CCRF-CEM leukemia
[13] = test system: OVCAR-3 ovarian
[14] = test system: SNB-19 CNS
[15] = test system: NCI-H522 lung
[16] = test system: HL-60(TB) leukemia
[17] = test system: OVCAR-5 ovarian
[18] = test system: RPMI-8226 leukemia
[19] = test system: KM12 colon
[20] = test system: DU-145 prostate
[21] = test system: MDA-MB-435
[22] = test system: SF-295 CNS
[23] = test system: OVCAR-8 ovarian
[24] = test system: MALME-3M melanoma
[25] = test system: SR leukemia
[26] = test system: U251 CNS
[27] = test system: SK-OV-3 ovarian
[28] = test system: HOP-92 NSCLC
[29] = test system: SF-539 CNS
[30] = test system: SK-MEL-5 melanoma
[31] = test system: OVCAR-4 ovarian
[32] = test system: HCT-116 colon
[33] = test system: M14 melanoma
[34] = test system: SK-MEL-2 melanoma
[35] = test system: MCF7 breast
[36] = test system: A498 renal
[37] = test system: RXF 393 renal
[38] = test system: ACHN renal
[39] = test system: A549 NSCLC
[40] = test system: MOLT-4 leukemia
[41] = test system: IGROV1 ovarian
[42] = test system: PC-3 prostate
[43] = test system: MDA-MB-231 breast
[44] = test system: CAKI-1 renal
[45] = test system: SNB-75 CNS
[46] = test system: NCI-H460 lung
[47] = test system: SN12C renal
[48] = test system: UO-31 renal
[49] = test system: BT-549 breast
[50] = test system: UACC-257 melanoma
[51] = test system: HCT-15 colon
[52] = test system: 786-0 renal
[53] = test system: HS 578T breast
[54] = test system: NCI-H23 lung
[55] = test system: SK-MEL-28 melanoma
[56] = test system: T-47D breast
[57] = test system: HOP-62 NSCLC
[58] = test system: SW-620 colon
[59] = test system: NCI/ADR-RES ovarian

Compound: O=C(c1ccc(Cl)cc1)C1[C@H](c2ccc(Br)cc2)[C@@H](c2ccccc2)NC12C(=O)Nc1ccccc12 (stereo partly specified)
- GI50 [1]: 9.95 µM
- TGI [1]: 19.6 µM
- GI50 [2]: 7.87 µM
- TGI [2]: 15.9 µM
- GI50 [3]: 8.43 µM
- TGI [3]: 19.5 µM
- GI50 [4]: 7.03 µM
- TGI [4]: 28.9 µM
- GI50 [5]: 5.7 µM
- TGI [5]: 15 µM
- GI50 [6]: 2.94 µM
- TGI [6]: 56 µM
- GI50 [7]: 7.79 µM
- TGI [7]: 16.7 µM
- GI50 [8]: 5.04 µM
- TGI [8]: 14.3 µM
- GI50 [9]: 8.72 µM
- TGI [9]: 20.1 µM
- GI50 [10]: 9.02 µM
- TGI [10]: 29 µM
- GI50 [11]: 4.16 µM
- TGI [11]: 12.1 µM
- GI50 [12]: 4.54 µM
- TGI [12]: 26.8 µM
- GI50 [13]: 8.74 µM
- TGI [13]: 27.4 µM
- GI50 [14]: 10.7 µM
- TGI [14]: 42.2 µM
- GI50 [15]: 5.93 µM
- TGI [15]: 15.5 µM
- GI50 [16]: 8.74 µM
- TGI [16]: 40.8 µM
- GI50 [17]: 7.19 µM
- TGI [17]: 15.1 µM
- GI50 [18]: 6.53 µM
- TGI [18]: 33.9 µM
- GI50 [19]: 6.13 µM
- TGI [19]: 17.9 µM
- GI50 [20]: 9.92 µM
- TGI [20]: 28.5 µM
- GI50 [21]: 7.84 µM
- TGI [21]: 16.9 µM
- GI50 [22]: 6.33 µM
- TGI [22]: 16.9 µM
- GI50 [23]: 8.26 µM
- TGI [23]: 17.3 µM
- GI50 [24]: 8.65 µM
- TGI [24]: 16.3 µM
- GI50 [25]: 4.32 µM
- TGI [25]: 42.2 µM
- GI50 [26]: 7.49 µM
- TGI [26]: 16 µM
- GI50 [27]: 14.8 µM
- TGI [27]: 54 µM
- GI50 [28]: 6.27 µM
- TGI [28]: 15.1 µM
- GI50 [29]: 8.59 µM
- TGI [29]: 18 µM
- GI50 [30]: 9.7 µM
- TGI [30]: 17.7 µM
- GI50 [31]: 8.37 µM
- TGI [31]: 31.3 µM
- GI50 [32]: 3.83 µM
- TGI [32]: 13.5 µM
- GI50 [33]: 6.97 µM
- TGI [33]: 16.4 µM
- GI50 [34]: 8.59 µM
- TGI [34]: 16.9 µM
- GI50 [35]: 4.65 µM
- TGI [35]: 29.3 µM
- GI50 [36]: 10.7 µM
- TGI [36]: 22.2 µM
- GI50 [37]: 6.62 µM
- TGI [37]: 14 µM
- GI50 [38]: 5.64 µM
- TGI [38]: 15.5 µM
- GI50 [39]: 5.03 µM
- TGI [39]: 15.9 µM
- GI50 [40]: 2.69 µM
- TGI [40]: 48.7 µM
- GI50 [41]: 7.01 µM
- TGI [41]: 16.2 µM
- GI50 [42]: 2.86 µM
- TGI [42]: 17.7 µM
- GI50 [43]: 6.21 µM
- TGI [43]: 13.5 µM
- GI50 [44]: 2.88 µM
- TGI [44]: 17.4 µM
- GI50 [45]: 5.1 µM
- TGI [45]: 26.1 µM
- GI50 [46]: 5.88 µM
- TGI [46]: 16 µM
- GI50 [47]: 5.41 µM
- TGI [47]: 12.3 µM
- GI50 [48]: 3.37 µM
- TGI [48]: 12 µM
- GI50 [49]: 8.86 µM
- TGI [49]: 17 µM
- GI50 [50]: 7.28 µM
- TGI [50]: 16.3 µM
- GI50 [51]: 6.91 µM
- TGI [51]: 18.7 µM
- GI50 [52]: 8 µM
- TGI [52]: 23.1 µM
- GI50 [53]: 8.79 µM
- TGI [53]: 26.3 µM
- GI50 [54]: 8.53 µM
- TGI [54]: 19.6 µM
- GI50 [55]: 7.53 µM
- TGI [55]: 15.1 µM
- GI50 [56]: 3.96 µM
- TGI [56]: 16 µM
- GI50 [57]: 8.69 µM
- TGI [57]: 18.3 µM
- GI50 [58]: 7.4 µM
- TGI [58]: 18.6 µM

Compound: O=C(N/N=C/c1ccc(-c2cccc([N+](=O)[O-])c2)o1)c1[nH]c2ccc(Br)cc2c1-c1ccccc1
- GI50 [1]: 2.75 µM
- TGI [1]: 7.49 µM
- GI50 [2]: 23.5 µM
- TGI [2]: > 100 µM
- GI50 [3]: 2.28 µM
- TGI [3]: 6 µM
- GI50 [4]: 5.55 µM
- TGI [4]: > 100 µM
- GI50 [5]: 2.58 µM
- TGI [5]: 6.97 µM
- GI50 [6]: 3.28 µM
- TGI [6]: > 100 µM
- GI50 [7]: 4.63 µM
- TGI [7]: > 100 µM
- GI50 [8]: 3.71 µM
- TGI [8]: > 100 µM
- GI50 [9]: > 100 µM
- TGI [9]: > 100 µM
- GI50 [10]: 5.74 µM
- TGI [10]: > 100 µM
- GI50 [11]: 4.46 µM
- TGI [11]: > 100 µM
- GI50 [13]: 3.47 µM
- TGI [13]: > 100 µM
- GI50 [14]: 3.48 µM
- TGI [14]: > 100 µM
- GI50 [15]: 1.73 µM
- TGI [15]: 3.98 µM
- GI50 [16]: 1.94 µM
- TGI [16]: 5.32 µM
- GI50 [17]: 3.84 µM
- TGI [17]: > 100 µM
- GI50 [18]: 3.31 µM
- TGI [18]: > 100 µM
- GI50 [19]: 3.75 µM
- TGI [19]: > 100 µM
- GI50 [20]: 4.2 µM
- TGI [20]: > 100 µM
- GI50 [21]: 3.2 µM
- TGI [21]: > 100 µM
- GI50 [59]: 2.53 µM
- TGI [59]: 6.49 µM
- GI50 [22]: 3.17 µM
- TGI [22]: > 100 µM
- GI50 [23]: 2.44 µM
- TGI [23]: 5.5 µM
- GI50 [24]: 3.77 µM
- TGI [24]: > 100 µM
- GI50 [26]: 3.34 µM
- TGI [26]: > 100 µM
- GI50 [27]: 3.61 µM
- TGI [27]: > 100 µM
- GI50 [28]: 46.1 µM
- TGI [28]: > 100 µM
- GI50 [29]: 2.34 µM
- TGI [29]: 5.81 µM
- GI50 [30]: 2.22 µM
- TGI [30]: 5.34 µM
- GI50 [31]: > 100 µM
- TGI [31]: > 100 µM
- GI50 [32]: 3.04 µM
- TGI [32]: 10.4 µM
- GI50 [33]: 3.43 µM
- TGI [33]: > 100 µM
- GI50 [34]: 2.68 µM
- TGI [34]: 8.93 µM
- GI50 [35]: 3.56 µM
- TGI [35]: > 100 µM
- GI50 [36]: > 100 µM
- TGI [36]: > 100 µM
- GI50 [37]: 2.65 µM
- TGI [37]: 7.45 µM
- GI50 [38]: 4.76 µM
- TGI [38]: > 100 µM
- GI50 [39]: 3.66 µM
- TGI [39]: > 100 µM
- GI50 [40]: 3.45 µM
- TGI [40]: > 100 µM
- GI50 [41]: 4.33 µM
- TGI [41]: > 100 µM
- GI50 [42]: 4.28 µM
- TGI [42]: > 100 µM
- GI50 [44]: 30.9 µM
- TGI [44]: > 100 µM
- GI50 [45]: 4.56 µM
- TGI [45]: > 100 µM
- GI50 [46]: 3.49 µM
- TGI [46]: > 100 µM
- GI50 [47]: 3.99 µM
- TGI [47]: > 100 µM
- GI50 [49]: 2.16 µM
- TGI [49]: 6.28 µM
- GI50 [50]: 5.79 µM
- TGI [50]: > 100 µM
- GI50 [51]: 3.59 µM
- TGI [51]: > 100 µM
- GI50 [52]: 2.75 µM
- TGI [52]: 13.3 µM
- GI50 [53]: 4.26 µM
- TGI [53]: > 100 µM
- GI50 [54]: 4.87 µM
- TGI [54]: > 100 µM
- GI50 [55]: 6.75 µM
- TGI [55]: > 100 µM
- GI50 [56]: > 100 µM
- TGI [56]: > 100 µM
- GI50 [57]: 3.49 µM
- TGI [57]: > 100 µM
- GI50 [58]: 4.5 µM
- TGI [58]: > 100 µM

Reference: PubChem BioAssay (NCI)
